Where a name gives a salt, the structure may show the parent alone. Read-outs that look alike come from different tables or passages of the source.
Legend:
[1] = pH 6.8 PBS 500 mL, basket 100 rpm, 37° C.
[2] = Compatibility with HPMCP HP-50 by residual content (% assay) after storage; type: physicochemical
Procedure: In comparison, duloxetine crude materials and granulated duloxetine particles having similar size obtained by the conventional wet granulation were also assayed. The granulated duloxetine particles were granulated by the same second solvent (e.g., acetonitrile), which was used in the process of spherical agglomeration, and dried at 50° C. until LOD<1%. An enteric material, hypromellose phthalate (HPMCP) HP-50, which is known to cause degradation of duloxetine, was used in this test.
FIGS. 4A-D are electronic microscopic diagram of duloxetine in different states. […] In Table 7, “C” refers to crude material. “SA” refers to spherical agglomerates. “G” refers to granulated duloxetine particles.

## CNCC[C@H](Oc1cccc2ccccc12)c1cccs1 [Crude, duloxetine hydrochloride]
[1]; 3 min
  Duloxetine Release (%): 89.3%
[1]; 6 min
  Duloxetine Release (%): 95.8%
[1]; 9 min
  Duloxetine Release (%): 97.5%
[1]; 12 min
  Duloxetine Release (%): 98.4%
[1]; 15 min
  Duloxetine Release (%): 98.8%
[1]; 18 min
  Duloxetine Release (%): 99.1%
[1]; 21 min
  Duloxetine Release (%): 99.4%
[1]; 30 min
  Duloxetine Release (%): 99.9%
[1]; 60 min
  Duloxetine Release (%): 100.9%
[2]
  % Assay (residual content): 98.39%

— patent US9833436B2, “Method of preparing drug agglomerate” (PharmaDax Inc., priority 2014, dated 2017)
